In one data set the target is T1, CYP2C9 (Homo sapiens, UniProt P11712).
T1 construct: Liver microsomes (150-donor, Corning, Cat. 452117; Lot; 38292), NADPH; tissue Corning 452117; host or cells: liver microsomes, 150-donor pool
Description: CYP enzyme inhibition in liver microsomes: CYP2C9. It is filed as in vitro ADME. The following applies: 0.2 mg/mL liver microsomes. On the procedure: (§1) Example 55: Investigation of CYP Enzyme Inhibition by the Compounds of the Present Invention Liver microsomes (150-donor, Corning, Cat. 452117; Lot. 38292), NADPH. […] After pre-incubating for 8 min, 10 mM NADPH was added to start the reaction, and the final concentration of NADPH was 1 mM. After a period of incubation, an internal standard such as methanol was added to stop the reaction. The amount of substrate metabolites generated in each reaction well was detected. […]
A general note: Liver microsomes are a subcellular fraction often used to study metabolism.

The nature of data set [1]: Cynomolgus monkey pharmacokinetics. It is filed as in vivo. More on the design: AUC: concentration or dose not given beside the values. The source says: Example 53: Investigation of the Pharmacokinetic Characteristics of the Compounds of the Present Invention
SD rats: male, 180-250 g, purchased from Guangdong Medical Laboratory Animal Center. Cynomolgus monkey: male, 4-6 kg, purchased from Guangzhou Chunsheng Biological Research Institute Co., Ltd. Beagle dog: male, 8-12 kg, developed in Kanglong Chemical (Ningbo) New Drug Technology Co., Ltd.
Reagents: DMSO (dimethyl sulfoxide), PEG-400 (polyethylene glycol 400), normal brine, heparin, acetonitrile, formic acid, and propranolol (internal standard) are commercially available.
Instrumentation: Thermo Fisher Scientific LC-MS (U300 UPLC, TSQ […] ULTRA triple quadrupole mass spectrometer).
The compound was weighed and dissolved in DMSO-PEG-400-physiological brine (5:60:35, v/v/v) system. After the rats/monkeys were administered intravenously or by gavage, 200 μL of venous blood was collected at 5 min (not collected when administered by gavage), 15 min, 30 min, 1 h, 2 h, 4 h, 6 h, 8 h, and 24 h in heparinized EP tubes, centrifuged at 12000 rpm for 2 min, and the plasma was frozen at −80° C. for testing. A certain amount of the test substance was precisely weighed and dissolved in DMSO to 1 mg/mL, which was used as a stock solution. An appropriate amount of compound stock solution was accurately pipetted and diluted with acetonitrile to prepare a standard series of solutions. 20 μL of each of the above standard series solutions were accurately pipetted, added with 180 μL of blank plasma, vortexed and mixed to prepare plasma samples equivalent to plasma concentrations of 1, 3, 10, 30, 100, 300, 1000, 3000 and 5000 ng/mL. Two-sample analysis was performed for each concentration to establish a standard curve. 20 μL of plasma was taken out, added with 200 μL of internal standard propranolol (5 ng/mL) in acetonitrile, vortexed and mixed. It was centrifuged at 4000 rpm for 5 min, and the supernatant was collected for LC-MS analysis. LC-MS detection conditions were as follows:
Chromatographic column: Thermo Scientific […] GOLD C-18 UPLC column, 100*2.1 mm, 1.9 μm.
Mobile phase: water (0.1% formic acid)-acetonitrile for gradient elution according to the table below.
After blood drug concentrations being detected by LC-MS, WinNonlin 6.1 software was used to calculate pharmacokinetic parameters by non-compartmental model method.

A further data set has as its target T2, CYP1A2 (Homo sapiens, UniProt P05177).
T2 construct: Liver microsomes (150-donor, Corning, Cat. 452117; Lot; 38292), NADPH; tissue Corning 452117; host or cells: liver microsomes, 150-donor pool
T2 sequence (P05177 1-516): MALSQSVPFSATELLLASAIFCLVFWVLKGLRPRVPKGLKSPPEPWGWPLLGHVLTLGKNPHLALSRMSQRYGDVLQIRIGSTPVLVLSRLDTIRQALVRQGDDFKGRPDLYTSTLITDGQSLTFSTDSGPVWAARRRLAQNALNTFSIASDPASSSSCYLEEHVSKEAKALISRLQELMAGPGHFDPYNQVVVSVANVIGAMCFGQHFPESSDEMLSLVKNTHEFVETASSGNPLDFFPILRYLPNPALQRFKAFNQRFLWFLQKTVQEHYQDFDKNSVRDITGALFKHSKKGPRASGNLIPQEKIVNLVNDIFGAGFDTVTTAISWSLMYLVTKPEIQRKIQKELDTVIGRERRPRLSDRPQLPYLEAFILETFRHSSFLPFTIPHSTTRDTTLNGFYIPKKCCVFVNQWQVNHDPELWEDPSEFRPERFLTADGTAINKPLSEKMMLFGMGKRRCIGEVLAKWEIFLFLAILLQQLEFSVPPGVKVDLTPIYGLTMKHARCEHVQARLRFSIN
As to the kind of experiment: CYP enzyme inhibition in liver microsomes: CYP1A2. It is filed as in vitro ADME. The following applies: 0.2 mg/mL liver microsomes. The procedure: Example 55: Investigation of CYP Enzyme Inhibition by the Compounds of the Present Invention Liver microsomes (150-donor, Corning, Cat. 452117; Lot. 38292), NADPH. A 0.2 mg/mL microsome system was prepared, each test substance and substrate were added, and the final concentration of the test substance was 50 μM. After pre-incubating for 8 min, 10 mM NADPH was added to start the reaction, and the final concentration of NADPH was 1 mM. After a period of incubation, an internal standard such as methanol was added to stop the reaction. The amount of substrate metabolites generated in each reaction well was detected. Data processing: Taking the metabolite generation in the blank well as 100%, the reduction of metabolite generation in each well of the test substance was calculated, and the inhibition rate was calculated.

In the next data set the target is T3, CYP3A4 (Homo sapiens, UniProt P08684).
T3 construct: Liver microsomes (150-donor, Corning, Cat. 452117; Lot; 38292), NADPH; tissue Corning 452117; host or cells: liver microsomes, 150-donor pool
Description: CYP enzyme inhibition in liver microsomes: CYP3A4. In kind it is in vitro ADME. The following applies: 0.2 mg/mL liver microsomes. On the procedure:
as §1

The nature of another data set: Rat pharmacokinetics. In kind it is in vivo, SD rats. More on the design: AUC: concentration or dose not given beside the values. The following applies: for AUC / Cmax / Tmax / clearance / half-life / Vd: male, SD, plasma; for Vd: read-out: Vss.

This note sets out measurements from patent publication US20230027295A1, “FXIA INHIBITORS AND PREPARATION METHOD THEREFOR AND PHARMACEUTICAL USE THEREOF” (Shenzhen Salubris Pharmaceuticals Co., Ltd., priority 2019, published 2023).

The structures appear in SMILES notation. Where only a bound is given, the exact number is not on record here.

T1 sequence (P11712 whole entry): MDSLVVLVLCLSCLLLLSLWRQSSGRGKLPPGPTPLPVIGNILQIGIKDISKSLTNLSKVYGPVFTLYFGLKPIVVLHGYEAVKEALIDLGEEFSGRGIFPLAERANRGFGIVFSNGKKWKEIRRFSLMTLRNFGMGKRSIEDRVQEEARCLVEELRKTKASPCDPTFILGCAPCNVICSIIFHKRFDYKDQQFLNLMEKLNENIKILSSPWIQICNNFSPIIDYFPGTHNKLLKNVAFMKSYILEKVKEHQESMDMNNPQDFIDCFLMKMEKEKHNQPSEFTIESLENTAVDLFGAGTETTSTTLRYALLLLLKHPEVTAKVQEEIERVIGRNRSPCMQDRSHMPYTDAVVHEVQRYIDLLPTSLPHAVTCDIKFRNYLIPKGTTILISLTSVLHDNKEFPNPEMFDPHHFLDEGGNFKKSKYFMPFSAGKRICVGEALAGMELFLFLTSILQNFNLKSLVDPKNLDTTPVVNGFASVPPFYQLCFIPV
T3 sequence (P08684 whole entry): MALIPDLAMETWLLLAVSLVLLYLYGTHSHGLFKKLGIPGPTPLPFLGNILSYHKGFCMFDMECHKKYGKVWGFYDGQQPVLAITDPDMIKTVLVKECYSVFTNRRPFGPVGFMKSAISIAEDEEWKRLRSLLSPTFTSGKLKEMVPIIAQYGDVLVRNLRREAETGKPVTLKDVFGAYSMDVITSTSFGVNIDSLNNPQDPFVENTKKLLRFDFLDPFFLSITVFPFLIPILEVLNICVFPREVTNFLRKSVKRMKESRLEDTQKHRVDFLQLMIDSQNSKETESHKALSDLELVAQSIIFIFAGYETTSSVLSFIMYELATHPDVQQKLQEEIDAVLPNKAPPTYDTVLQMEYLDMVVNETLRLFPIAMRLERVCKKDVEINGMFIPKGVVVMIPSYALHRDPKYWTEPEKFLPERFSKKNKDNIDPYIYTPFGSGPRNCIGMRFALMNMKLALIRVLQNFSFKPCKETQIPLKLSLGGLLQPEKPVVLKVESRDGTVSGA

Consider `COc1nn([C@@H](Cc2ccccc2)C(=O)Nc2ccc(C(=O)O)cc2)c(=O)cc1-c1cc(Cl)ccc1C(C)=O` [Example 19, (S)-4-(2-(4-(2-acetyl-5-chlorophenyl)-3-methoxy-6-oxopyridazin-1(6H)-yl)-3-phenylpropanamido)benzoic acid], for which the IC50 on CYP2C9, on CYP1A2 and against CYP3A4 was over 50 µM each time. The F in data set [1] (ig) was 17.3%; in the data set “Rat pharmacokinetics” (ig), 24.6%. The AUC in data set [1] (male, plasma, iv) is 1430 ng·h/mL; in data set [1] (male, plasma, po, ig), 2480 ng·h/mL; in “Rat pharmacokinetics” (iv), 1020 ng·h/mL; in “Rat pharmacokinetics” (po, ig) it was 2510 ng·h/mL. Moreover, the Cmax in data set [1] (male, plasma, iv) came to 2690 ng/mL; in data set [1] (male, plasma, po, ig), 198 ng/mL; in the data set “Rat pharmacokinetics” (iv), 2500 ng/mL; in “Rat pharmacokinetics” (po, ig) it was 768 ng/mL. Further, the Tmax in data set [1] (male, plasma, iv) was determined as 0.083 h; in data set [1] (male, plasma, po, ig), 2.5 h; in the data set “Rat pharmacokinetics” (iv), 0.083 h; in “Rat pharmacokinetics” (po, ig), 1.25 h. The clearance in data set [1] (male, plasma, iv) came out at 12 mL/min/kg; in “Rat pharmacokinetics” (iv) it was 16.4 mL/min/kg. Moreover, the half-life is 2.83 h in data set [1] (male, plasma, iv); 7.07 h in data set [1] (male, plasma, po, ig); 0.181 h in the data set “Rat pharmacokinetics” (iv); 2.52 h in the data set “Rat pharmacokinetics” (po, ig). The Vd in data set [1] (male, plasma, iv, read-out: Vss) is 0.65 L/kg; in “Rat pharmacokinetics” (iv) it was 0.269 L/kg.
Take `CCC(=O)c1ccc(Cl)cc1-c1cc(=O)n([C@@H](Cc2ccccc2)C(=O)Nc2ccc(C(=O)O)cc2)nc1OC` [Example 32]: the IC50 at CYP2C9 was about 50 µM. The same compound gave an IC50 against CYP1A2 of over 50 µM. Also, the IC50 on CYP3A4 is over 50 µM. In addition, the F in “Rat pharmacokinetics” (ig) was 5.4%. Also, in the data set “Rat pharmacokinetics” (iv), the AUC was found to be 922 ng·h/mL, the Cmax amounted to 2200 ng/mL, the Tmax amounted to 0.083 h and the clearance was 23.5 mL/min/kg. Besides, in the data set “Rat pharmacokinetics” (iv), the half-life is 1.65 h and the Vd is 0.741 L/kg. In “Rat pharmacokinetics” (po, ig), the AUC was found to be 788 ng·h/mL, the concentration peaked (Cmax) at 242 ng/mL, the Tmax came out at 0.333 h and the half-life is 3.77 h.

In general, IC50 refers to the concentration that inhibits the measured activity by half. By AUC is commonly meant the area under the concentration-time curve, a measure of exposure. In general, Cmax refers to the peak of the concentration-time curve. Broadly, the Tmax is the time from dosing to the highest level. The clearance is a measure of how efficiently the substance is removed, as volume per time. In general, half-life refers to the time needed for the level to fall by half in the phase considered.
